Assay results as given in PubChem BioAssay (NCI).
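Five compound concentrations were applied to cells in 96-well plates for 48 hours; endpoints were derived by simple linear interpolation of the resulting dose-response curve. Here, GI50 denotes the concentration required for 50% inhibition of growth. At the TGI there is no net growth.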

Assays:
Assay in all cases: growth of human tumour cells (NCI), 48 h; in the data active = GI50 below about 0.43 µM; inactive = the rest
UACC-62 melanoma = system: UACC-62 melanoma
SK-MEL-28 melanoma = system: SK-MEL-28 melanoma
IGROV1 ovarian = system: IGROV1 ovarian
MALME-3M melanoma = system: MALME-3M melanoma
SF-295 CNS = system: SF-295 CNS
UO-31 renal = system: UO-31 renal
COLO 205 colon = system: COLO 205 colon
OVCAR-3 ovarian = system: OVCAR-3 ovarian
M14 melanoma = system: M14 melanoma
TK-10 renal = system: TK-10 renal
SK-OV-3 ovarian = system: SK-OV-3 ovarian
RPMI-8226 leukemia = system: RPMI-8226 leukemia
HCT-116 colon = system: HCT-116 colon
U251 CNS = system: U251 CNS
A549 NSCLC = system: A549 NSCLC
OVCAR-5 ovarian = system: OVCAR-5 ovarian
LOX IMVI melanoma = system: LOX IMVI melanoma
T-47D breast = system: T-47D breast
CCRF-CEM leukemia = system: CCRF-CEM leukemia
HOP-62 NSCLC = system: HOP-62 NSCLC
KM12 colon = system: KM12 colon
HT29 colon = system: HT29 colon
ACHN renal = system: ACHN renal
HOP-92 NSCLC = system: HOP-92 NSCLC
MDA-MB-231 breast = system: MDA-MB-231 breast
HL-60(TB) leukemia = system: HL-60(TB) leukemia
BT-549 breast = system: BT-549 breast
OVCAR-8 ovarian = system: OVCAR-8 ovarian
EKVX NSCLC = system: EKVX NSCLC
HS 578T breast = system: HS 578T breast
NCI-H226 lung = system: NCI-H226 lung
PC-3 prostate = system: PC-3 prostate
MOLT-4 leukemia = system: MOLT-4 leukemia
NCI-H522 lung = system: NCI-H522 lung
MCF7 breast = system: MCF7 breast
NCI-H460 lung = system: NCI-H460 lung
UACC-257 melanoma = system: UACC-257 melanoma
SF-268 CNS = system: SF-268 CNS
SK-MEL-2 melanoma = system: SK-MEL-2 melanoma
HCT-15 colon = system: HCT-15 colon
786-0 renal = system: 786-0 renal
SW-620 colon = system: SW-620 colon
CAKI-1 renal = system: CAKI-1 renal
NCI/ADR-RES ovarian = system: NCI/ADR-RES ovarian
SNB-19 CNS = system: SNB-19 CNS
MDA-MB-435 = system: MDA-MB-435
NCI-H23 lung = system: NCI-H23 lung
RXF 393 renal = system: RXF 393 renal
SK-MEL-5 melanoma = system: SK-MEL-5 melanoma
OVCAR-4 ovarian = system: OVCAR-4 ovarian
SNB-75 CNS = system: SNB-75 CNS
SN12C renal = system: SN12C renal
HCC-2998 colon = system: HCC-2998 colon
SF-539 CNS = system: SF-539 CNS
SR leukemia = system: SR leukemia
K-562 leukemia = system: K-562 leukemia

COc1ccc2[nH]c(Cl)c(/C=C3/C(=O)N(C)c4ccccc43)c2c1
> 100 µM: TGI (UACC-62 melanoma) | TGI (SK-MEL-28 melanoma) | TGI (IGROV1 ovarian) | TGI (MALME-3M melanoma) | TGI (SF-295 CNS) | TGI (UO-31 renal) | TGI (COLO 205 colon) | TGI (OVCAR-3 ovarian) | TGI (M14 melanoma) | TGI (TK-10 renal) | TGI (SK-OV-3 ovarian) | TGI (RPMI-8226 leukemia) | TGI (HCT-116 colon) | TGI (U251 CNS) | TGI (A549 NSCLC) | TGI (OVCAR-5 ovarian) | TGI (LOX IMVI melanoma) | TGI (CCRF-CEM leukemia) | TGI (HOP-62 NSCLC) | TGI (HT29 colon) | TGI (ACHN renal) | TGI (HOP-92 NSCLC) | TGI (MDA-MB-231 breast) | TGI (HL-60(TB) leukemia) | TGI (BT-549 breast) | TGI (OVCAR-8 ovarian) | TGI (EKVX NSCLC) | TGI (HS 578T breast) | TGI (NCI-H226 lung) | TGI (PC-3 prostate) | TGI (MOLT-4 leukemia) | TGI (NCI-H522 lung) | TGI (MCF7 breast) | TGI (NCI-H460 lung) | TGI (UACC-257 melanoma) | TGI (SF-268 CNS) | TGI (SK-MEL-2 melanoma) | TGI (HCT-15 colon) | TGI (786-0 renal) | TGI (SW-620 colon) | TGI (CAKI-1 renal) | TGI (NCI/ADR-RES ovarian) | TGI (SNB-19 CNS) | TGI (MDA-MB-435) | TGI (NCI-H23 lung) | TGI (RXF 393 renal) | TGI (SK-MEL-5 melanoma) | TGI (OVCAR-4 ovarian)
63.4 µM: TGI (T-47D breast)
inactive: GI50 (UACC-62 melanoma) 71 µM | GI50 (SK-MEL-28 melanoma) > 100 µM | GI50 (IGROV1 ovarian) > 100 µM | GI50 (MALME-3M melanoma) > 100 µM | GI50 (SF-295 CNS) > 100 µM | GI50 (UO-31 renal) > 100 µM | GI50 (COLO 205 colon) 21.7 µM | GI50 (OVCAR-3 ovarian) 55.1 µM | GI50 (M14 melanoma) > 100 µM | GI50 (TK-10 renal) > 100 µM | GI50 (SK-OV-3 ovarian) 77.4 µM | GI50 (RPMI-8226 leukemia) > 100 µM | GI50 (HCT-116 colon) 42.5 µM | GI50 (U251 CNS) > 100 µM | GI50 (A549 NSCLC) > 100 µM | GI50 (OVCAR-5 ovarian) > 100 µM | GI50 (LOX IMVI melanoma) > 100 µM | GI50 (T-47D breast) 13.1 µM | GI50 (CCRF-CEM leukemia) 43.6 µM | GI50 (HOP-62 NSCLC) 92 µM | GI50 (KM12 colon) 16.9 µM | GI50 (HT29 colon) > 100 µM | GI50 (ACHN renal) > 100 µM | GI50 (HOP-92 NSCLC) 91.3 µM | GI50 (MDA-MB-231 breast) 36.5 µM | GI50 (HL-60(TB) leukemia) > 100 µM | GI50 (BT-549 breast) > 100 µM | GI50 (OVCAR-8 ovarian) > 100 µM | GI50 (EKVX NSCLC) > 100 µM | GI50 (HS 578T breast) > 100 µM | GI50 (NCI-H226 lung) 29.4 µM | GI50 (PC-3 prostate) > 100 µM | GI50 (MOLT-4 leukemia) 79.1 µM | GI50 (NCI-H522 lung) > 100 µM | GI50 (MCF7 breast) > 100 µM | GI50 (NCI-H460 lung) > 100 µM | GI50 (UACC-257 melanoma) > 100 µM | GI50 (SF-268 CNS) > 100 µM | GI50 (SK-MEL-2 melanoma) > 100 µM | GI50 (HCT-15 colon) > 100 µM | GI50 (786-0 renal) > 100 µM | GI50 (SW-620 colon) 96.6 µM | GI50 (CAKI-1 renal) > 100 µM | GI50 (NCI/ADR-RES ovarian) > 100 µM | GI50 (SNB-19 CNS) 48.9 µM | GI50 (MDA-MB-435) > 100 µM | GI50 (NCI-H23 lung) > 100 µM | GI50 (RXF 393 renal) > 100 µM | GI50 (SK-MEL-5 melanoma) 69.3 µM | GI50 (OVCAR-4 ovarian) > 100 µM
34.7 µM: TGI (KM12 colon)

Nc1ncnc2nc(-c3ccc(C[P+](c4ccccc4)(c4ccccc4)c4ccccc4)cc3)[nH]c12
inactive: GI50 (SNB-75 CNS) 57.7 µM | GI50 (U251 CNS) 32.7 µM | GI50 (786-0 renal) 48.2 µM

COc1cccc(-c2cc(=O)c3cc(N)ccc3[nH]2)c1
inactive: GI50 (OVCAR-4 ovarian) 82.3 µM
> 100 µM: TGI (SNB-75 CNS) | TGI (UACC-62 melanoma) | TGI (SK-MEL-28 melanoma) | TGI (IGROV1 ovarian) | TGI (COLO 205 colon) | TGI (M14 melanoma) | TGI (TK-10 renal) | TGI (U251 CNS) | TGI (A549 NSCLC) | TGI (OVCAR-5 ovarian) | TGI (CCRF-CEM leukemia) | TGI (HOP-62 NSCLC) | TGI (KM12 colon) | TGI (ACHN renal) | TGI (SN12C renal) | TGI (MDA-MB-231 breast) | TGI (BT-549 breast) | TGI (OVCAR-8 ovarian) | TGI (EKVX NSCLC) | TGI (PC-3 prostate) | TGI (MOLT-4 leukemia) | TGI (MCF7 breast) | TGI (NCI-H460 lung) | TGI (HCT-15 colon) | TGI (786-0 renal) | TGI (SW-620 colon) | TGI (SNB-19 CNS) | TGI (NCI-H23 lung) | TGI (OVCAR-4 ovarian)
11.9 µM: TGI (NCI/ADR-RES ovarian)
6.79 µM: TGI (SK-OV-3 ovarian)
5.2 µM: TGI (SF-539 CNS)
59.7 µM: TGI (HOP-92 NSCLC)
7.56 µM: TGI (NCI-H522 lung)
18 µM: TGI (HT29 colon)
48.6 µM: TGI (HCC-2998 colon)

O=P(O)(Cc1ccccc1)OCC1(O)OCC(O)C(O)C1O (stereo not given)
> 10 µM: TGI (SNB-75 CNS) | TGI (UACC-62 melanoma) | TGI (SK-MEL-28 melanoma) | TGI (IGROV1 ovarian) | TGI (MALME-3M melanoma) | TGI (COLO 205 colon) | TGI (M14 melanoma) | TGI (SK-OV-3 ovarian) | TGI (RPMI-8226 leukemia) | TGI (U251 CNS) | TGI (A549 NSCLC) | TGI (OVCAR-5 ovarian) | TGI (T-47D breast) | TGI (HOP-62 NSCLC) | TGI (ACHN renal) | TGI (MCF7 breast) | TGI (NCI-H460 lung) | TGI (SF-268 CNS) | TGI (SR leukemia) | TGI (SK-MEL-2 melanoma) | TGI (K-562 leukemia) | TGI (786-0 renal) | TGI (SW-620 colon) | TGI (CAKI-1 renal) | TGI (NCI/ADR-RES ovarian) | TGI (MDA-MB-435) | TGI (NCI-H23 lung) | TGI (RXF 393 renal) | TGI (SK-MEL-5 melanoma) | TGI (OVCAR-4 ovarian)
